Results on three cell lines are retold here after the supplement of paper PMC10307832.

Holding throughout (assay): relative viability (nuclei count vs DMSO), 5 days (fraction); higher = more cells survive
Compound in assay [1]: CCCS(=O)(=O)Nc1ccc(F)c(C(=O)c2c[nH]c3ncc(-c4ccc(Cl)cc4)cc23)c1F [Vemurafenib] + COc1cccc2cc(-c3nc([C@H]4CC[C@H](C(=O)O)CC4)n4ncnc(N)c34)[nH]c12 [OSI-027] (partner 0.5 µM)
An outline of the steps:
(§1)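 Lung cancer cell lines were pin-tool dosed in 1536-well plates on the day after seeding, with either a lone drug or a fixed anchor-drug dose plus five library-drug doses (not always all listed) in √10 steps. Nuclei were counted on 4× images after 5 days. Relative viability is the ratio of treated-well to vehicle-well nuclei counts, with each value a median of duplicate plates.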

Compound in assay [2]: CCCS(=O)(=O)Nc1ccc(F)c(C(=O)c2c[nH]c3ncc(-c4ccc(Cl)cc4)cc23)c1F [Vemurafenib] + O=C(c1cc(Cc2n[nH]c(=O)c3ccccc23)ccc1F)N1CCN(C(=O)C2CC2)CC1 [Olaparib] (partner 8 µM)
A digest of the protocol: as §1

Compound in assay [3]: COc1cccc2cc(-c3nc([C@H]4CC[C@H](C(=O)O)CC4)n4ncnc(N)c34)[nH]c12 [OSI-027] + O=C(CCCCCCC(=O)Nc1ccccc1)NO [Vorinostat] (partner 1 µM)
An outline of the steps: as §1

Compound in assay [4]: Cc1nc(NC(=O)N2CCC[C@H]2C(N)=O)sc1-c1ccnc(C(C)(C)C(F)(F)F)c1 [Alpelisib] + CS(=O)(=O)N1CCN(Cc2cc3nc(-c4cccc5[nH]ncc45)nc(N4CCOCC4)c3s2)CC1 [Pictilisib] (partner 1 µM)
A digest of the protocol:
as §1

Regarding NCI-H2087, the relative viability in assay [1] (first compound 0.03162 µM) came to 0.481; in assay [1] (first compound 0.1 µM) it was 0.565; in assay [1] (first compound 1 µM) it was 0.514; in assay [2] (first compound 0.03162 µM), 0.506; in assay [2] (first compound 0.1 µM), 0.588; in assay [2] (first compound 0.3162 µM) it was 0.504. Besides, the relative viability in assay [2] (first compound 1 µM) worked out at 0.47; in assay [3] (first compound 0.01 µM) it was 0.971; in assay [3] (first compound 0.03162 µM) it was 0.769; in assay [3] (first compound 0.1 µM), 0.613; in assay [3] (first compound 0.3162 µM), 0.815; in assay [3] (first compound 1 µM), 0.161. Also, the relative viability in assay [4] (first compound 0.04 µM) is 0.801; in assay [4] (first compound 0.1265 µM) it was 0.847; in assay [4] (first compound 0.4 µM), 1.01; in assay [4] (first compound 1.265 µM) it was 0.827; in assay [4] (first compound 4 µM), 0.659.

On to RERF-LC-KJ, for which the relative viability in assay [1] (first compound 0.03162 µM) is 0.651; in assay [1] (first compound 0.1 µM), 0.454; in assay [1] (first compound 0.3162 µM), 0.533; in assay [1] (first compound 1 µM), 0.632; in assay [2] (first compound 0.03162 µM) it was 0.842; in assay [2] (first compound 0.1 µM), 0.944. For the same cell line, the relative viability was determined as 0.923 in assay [2] (first compound 0.3162 µM); 1.06 in assay [2] (first compound 1 µM); 0.647 in assay [3] (first compound 0.01 µM); 0.685 in assay [3] (first compound 0.03162 µM); 0.595 in assay [3] (first compound 0.1 µM); 0.529 in assay [3] (first compound 0.3162 µM). Further, the relative viability in assay [3] (first compound 1 µM) was found to be 0.426; in assay [4] (first compound 0.04 µM), 0.557; in assay [4] (first compound 0.1265 µM), 0.583; in assay [4] (first compound 0.4 µM), 0.559; in assay [4] (first compound 1.265 µM), 0.268; in assay [4] (first compound 4 µM), 0.46.

With NCI-H2228, the relative viability in assay [1] (first compound 0.03162 µM) stood at 0.548; in assay [1] (first compound 0.1 µM) it was 0.634; in assay [1] (first compound 0.3162 µM) it was 0.634; in assay [1] (first compound 1 µM), 0.474; in assay [2] (first compound 0.03162 µM), 0.639; in assay [2] (first compound 0.1 µM), 0.87. Besides, the relative viability stood at 0.611 in assay [2] (first compound 0.3162 µM); 0.6 in assay [2] (first compound 1 µM); 0.509 in assay [3] (first compound 0.01 µM); 0.511 in assay [3] (first compound 0.03162 µM); 0.528 in assay [3] (first compound 0.1 µM); 0.564 in assay [3] (first compound 0.3162 µM). The relative viability in assay [3] (first compound 1 µM) came to 0.45; in assay [4] (first compound 0.04 µM), 0.473; in assay [4] (first compound 0.1265 µM) it was 0.326; in assay [4] (first compound 0.4 µM), 0.547; in assay [4] (first compound 1.265 µM), 0.445; in assay [4] (first compound 4 µM), 0.221.
